Structures can show the parent of a compound that is named as a salt.
Experiments:
[1] = test system: Pseudomonas aeruginosa ATCC 27853; assay: Standard bacterial EPI assay: MIC of levofloxacin in the absence and presence of the EPI; format: cell-based; conditions: P. aeruginosa ATCC 27853
Experimental: (§1) MIC assays were conducted in accordance with Clinical and Laboratory Standards Institute (CLSI) guidelines for broth microdilution. A 96-well plate containing cation-adjusted Mueller-Hinton (CAMH broth with 2-fold serial dilution of compounds was inoculated with log-phase bacterial at 5×10^5 CFU/mL. The final volume in each well was 100 μL. Each compound was tested in duplicate. The microtiter plates were incubated in an aerobic environment for 18 hours at 37° C. Then the bacterial growth was tested by reading the plate with a VersaMax plate reader (Molecular Devices, Inc.) at 600 nm. The MIC was defined as the lowest compound concentration that inhibited 90% of bacteria growth.
The EPI assay for the purposes of these studies represents a MIC assay in which the MIC of the antibiotic against the bacteria is tested in the presence of an experimental efflux pump inhibitor (EPI). […] Using serial dilutions of the EPI, its enhancement of antibiotic activity was then evaluated. […]
The impact of Example 2 on the MIC values of two test antibiotics (levofloxacin and cefepime) against P. aeruginosa ATCC 27853 were evaluated using our standard EPI assay. […]
In our standard EPI assay, the MIC of the test antibiotic is determined in the absence and presence of sub-inhibitory concentrations of the EPI. […]

[2] = test system: P. aeruginosa ATCC 27853; assay: Intrinsic MIC assay (CLSI broth microdilution); format: cell-based; conditions: Pseudomonas aeruginosa, ATCC27853, compound alone
Experimental: as §1
The intrinsic MIC of the experimental EPIs was tested with the method described. The 2-fold serial dilution begins with 100 μg/mL of tested compound in the first column of the 96-well plates. The following Gram-negative bacterial strains were included in these assays: […]

## NCCC[C@H](N)CNC(=O)c1[nH]c2cc(-c3ccc(F)cc3)ccc2c1C1CC1 [Example 2, (S)-3-cyclopropyl-N-(2,5-diaminopentyl)-6-(4-fluorophenyl)-1H-indole-2-carboxamide dihydrochloride]
[1]; 6.25 μg/mL (½×MIC) of the EPI
  MIC of levofloxacin in the presence of the EPI: 0.032 µg/mL
[1]; 6.25 μg/mL of the EPI
  fold reduction of the MIC of levofloxacin relative to the absence of EPI: 32 fold
[2]
  MIC: 12.5 µg/mL
